Experimental data taken from US9145402B2, “Aminopyrimidine derivatives as LRRK2 modulators” (Genentech, Inc., priority 2011, dated 2015).

Molecular target: LRRK2 (Homo sapiens (Human), UniProt Q5S007, G2019S)
Assay: In Vitro LRRK2 LabChip Assay (LRRK2 Ki)
Assay type: biochemical
Procedure: In Vitro LRRK2 LabChip Assay
This assay was used to determine a compound's potency in inhibiting activity of LRRK2 by determining, Kiapp, IC50, or percent inhibition values. In a polypropylene plate, LRRK2, fluorescently-labeled peptide substrate, ATP and test compound were incubated together. Using a LabChip 3000 (Caliper Life Sciences), after the reaction the substrate was separated by capillary electrophoresis into two populations: phosphorylated and unphosphorylated. The relative amounts of each were quantitated by fluorescence intensity. LRRK2 Ki was determined according to the equation: Y=V0*(1−((x+Ki*(1+S/Km)+Et)/(2*Et)−(((x+Ki*(1+S/Km)+Et)^2−(4*Et*x))^0.5)/(2*Et))). Ki values in Table 4 and elsewhere herein are shown in μM.
Assay conditions and materials used were as follows:
Kinase reaction time: 2 hours
Wild type in 5 mM MgCl2: 80 μM
Solid Support: Black 50 μL volume polypropylene 384 well plate (MatriCal cat #MP101-1-PP)
Non-binding plate: 384 well clear V-bottom polypropylene plates (Greiner cat #781280).
ATP: 10 mM ATP (Cell Signaling cat #9804).
Coating Reagent #3: Coating Reagent #3 (Caliper).
Complete Reaction Buffer: H2O/25 mM Tris, pH 8.0/5 mM MgCl2/2 mM DTT/0.01% Triton X-100.
Stop Solution: H2O/100 mM HEPES, pH 7.2/0.015% Brij-35/0.2% Coating Reagent #3/20 mM EDTA.
Separation Buffer: H2O/100 mM HEPES, pH 7.2/0.015% Brij-35/0.1% Coating Reagent #3/1:200 Coating Reagent #8/10 mM EDTA/5% DMSO.
Compound Plate Preparation:
For serial dilutions, 34.6 μl DMSO was added to columns 3-24. For the assay controls, 37.5 μl DMSO was added to columns 1 and 2 of rows A and P. a,d and 50 μl 25 μM G-028831 (Staurosporine) was added to columns 1 and 2, row B. For the samples: to start at 100 μM, 37.5 μl DMSO was to columns 1 and 2, then 12.5 μl 10 mM compound; to start at 10 μM, 78 μl DMSO was added to columns 1 & 2, then 2 μl 10 mM compound; and to start at 1 μM, 25 μM compound (2 μl 10 mM cmpd+798 μl DMSO) was added to empty columns 1 and 2. A Precision instrument was used to perform 1:3.16 serial dilutions (“PLK_BM_serial_halflog”).
ATP was diluted to 282.1 μM in Complete Kinase Buffer (final concentration was 130 μM).
Total and Blank Preparation:
In Complete Reaction Buffer, substrate was diluted to 4 μM. Equal volumes of Complete Reaction Buffer and 4 μM substrate were combined to obtain the blank. Equal volumes of Complete Reaction Buffer and 4 μM substrate were combined and to the combined solution was added 2× final LRRK2 concentration.
To a 50 μl polypropylene plate, 5 μl/well buffer/substrate was added by hand to Blank wells. A Biomek FX was used to start the kinase reaction (“PLK SAR 23 ATP”). The following were added to the appropriate wells:
5 μl/well compound/ATP in Assay Plate;
5 μl/well kinase/substrate in Assay Plate;
The plate was incubated for 2 hours in the dark. Biomek FX was used to stop the kinase reaction (“PLK Stop”), and 10 μl/well Stop solution was added to the Assay Plate. Results were read on the LabChip 3000.
The LabChip 3000 was run using the job “LRRK2 IC50” with the following job settings:
Downstream voltage: −500 V
Upstream voltage: −2350 V
Post sample buffer sip time: 75 seconds
Post dye buffer sip time: 75 seconds
Final delay time: 200 seconds

Sequence of LRRK2 (Q5S007 970-2527 G2019S): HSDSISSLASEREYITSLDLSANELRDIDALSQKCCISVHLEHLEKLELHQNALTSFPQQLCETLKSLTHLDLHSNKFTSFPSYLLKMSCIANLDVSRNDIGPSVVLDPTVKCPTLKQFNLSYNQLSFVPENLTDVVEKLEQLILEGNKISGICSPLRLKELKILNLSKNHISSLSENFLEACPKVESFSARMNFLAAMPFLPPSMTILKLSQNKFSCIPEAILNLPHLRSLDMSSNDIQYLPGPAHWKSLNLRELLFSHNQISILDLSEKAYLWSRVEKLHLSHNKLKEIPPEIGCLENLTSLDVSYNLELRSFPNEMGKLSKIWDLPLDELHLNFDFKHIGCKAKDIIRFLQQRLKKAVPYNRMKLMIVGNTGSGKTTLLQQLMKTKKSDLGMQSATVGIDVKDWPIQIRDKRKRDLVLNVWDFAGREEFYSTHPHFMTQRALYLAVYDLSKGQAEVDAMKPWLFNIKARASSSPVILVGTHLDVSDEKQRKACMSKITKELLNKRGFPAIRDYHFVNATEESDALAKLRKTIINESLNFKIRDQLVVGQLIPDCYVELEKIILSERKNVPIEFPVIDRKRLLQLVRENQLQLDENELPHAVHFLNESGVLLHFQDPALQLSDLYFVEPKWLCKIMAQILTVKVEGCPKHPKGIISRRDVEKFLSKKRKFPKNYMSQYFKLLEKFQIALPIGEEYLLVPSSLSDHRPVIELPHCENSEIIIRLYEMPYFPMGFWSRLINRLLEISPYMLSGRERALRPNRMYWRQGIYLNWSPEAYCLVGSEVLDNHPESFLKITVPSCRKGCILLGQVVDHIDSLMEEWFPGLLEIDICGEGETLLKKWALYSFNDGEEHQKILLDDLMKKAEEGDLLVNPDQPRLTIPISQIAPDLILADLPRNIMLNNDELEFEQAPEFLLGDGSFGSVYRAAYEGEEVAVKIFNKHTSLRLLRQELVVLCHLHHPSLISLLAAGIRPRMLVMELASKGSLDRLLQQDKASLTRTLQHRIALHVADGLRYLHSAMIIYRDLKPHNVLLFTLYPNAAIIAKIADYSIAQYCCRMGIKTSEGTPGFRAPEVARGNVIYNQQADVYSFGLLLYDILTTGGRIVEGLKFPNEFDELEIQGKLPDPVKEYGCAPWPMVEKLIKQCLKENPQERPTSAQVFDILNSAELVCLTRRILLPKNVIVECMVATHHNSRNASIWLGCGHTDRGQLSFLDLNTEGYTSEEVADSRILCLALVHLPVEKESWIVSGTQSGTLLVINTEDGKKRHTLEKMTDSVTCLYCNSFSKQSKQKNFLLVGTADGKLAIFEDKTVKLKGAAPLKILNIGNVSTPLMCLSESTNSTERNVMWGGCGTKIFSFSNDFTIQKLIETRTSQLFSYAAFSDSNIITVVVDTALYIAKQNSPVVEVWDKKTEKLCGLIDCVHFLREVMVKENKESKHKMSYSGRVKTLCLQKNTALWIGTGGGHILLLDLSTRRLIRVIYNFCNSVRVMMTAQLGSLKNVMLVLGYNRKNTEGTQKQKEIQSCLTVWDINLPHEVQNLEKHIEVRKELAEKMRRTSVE

Structure (SMILES)	Ki
CNc1nc(Nc2ccc(S(C)(=O)=O)cc2OC)ncc1C(F)(F)F [Example 1, N2-(2-Methoxy-4-(methylsulfonyl)phenyl)-N4-methyl-5-(trifluoromethyl)pyrimidine-2,4-diamine]	2 nM
CNc1nc(Nc2ccc(S(C)(=O)=O)cc2OC)ncc1Cl [Example 2, 5-Chloro-N2-(2-methoxy-4-(methylsulfonyl)phenyl)-N4-methylpyrimidine-2,4-diamine]	2 nM
CNc1nc(Nc2cc(F)c(C#N)cc2OC)ncc1C(F)(F)F [Example 3, 2-Fluoro-5-methoxy-4-(4-(methylamino)-5-(trifluoromethyl)pyrimidin-2-ylamino)benzonitrile]	22 nM
CNc1nc(Nc2ccc(C#N)cc2OC)ncc1C(F)(F)F [Example 4, 3-Methoxy-4-(4-(methylamino)-5-(trifluoromethyl)pyrimidin-2-ylamino)benzonitrile]	8 nM
CNc1nc(Nc2ccc(C#N)cc2OC)ncc1Cl [Example 5, 4-(5-Chloro-4-(methylamino)pyrimidin-2-ylamino)-3-methoxybenzonitrile]	8 nM
COc1nc(Nc2ccc(S(C)(=O)=O)cc2Cl)ncc1Cl [Example 6, (2-Chloro-4-methanesulfonyl-phenyl)-(5-chloro-4-methoxy-pyrimidin-2-yl)-amine]	61 nM
CNc1nc(Nc2ccc(S(C)(=O)=O)cc2Cl)ncc1C(F)(F)F [Example 7, N2-(2-Chloro-4-methanesulfonyl-phenyl)-N4-methyl-5-trifluoromethyl-pyrimidine-2,4-diamine]	8 nM
CNc1nc(Nc2ccc(S(C)(=O)=O)cc2Cl)ncc1Cl [Example 8, 5-Chloro-N2-(2-chloro-4-methanesulfonyl-phenyl)-N4-methyl-pyrimidine-2,4-diamine]	8 nM
CNc1nc(Nc2ccc(CN3CCOCC3)cc2OC)ncc1C(F)(F)F [Example 9, N2-(2-Methoxy-4-morpholin-4-ylmethyl-phenyl)-N4-methyl-5-trifluoromethyl-pyrimidine-2,4-diamine]	3 nM
CNc1nc(Nc2cc(C)c(C#N)cc2Cl)ncc1C(F)(F)F [Example 10, 5-Chloro-2-methyl-4-(4-methylamino-5-trifluoromethyl-pyrimidin-2-ylamino)-benzonitrile]	46 nM
CNc1nc(Nc2cc(F)c(CN3CCOCC3)cc2OC)ncc1C#N [Example 11, 2-(5-Fluoro-2-methoxy-4-morpholin-4-ylmethyl-phenylamino)-4-methylamino-pyrimidine-5-carbonitrile]	27 nM
CCNc1nc(Nc2cc(F)c(CN3CCOCC3)cc2OC)ncc1C#N [Example 12, 4-Ethylamino-2-(5-fluoro-2-methoxy-4-morpholin-4-ylmethyl-phenylamino)-pyrimidine-5-carbonitrile]	14 nM
CNc1nc(Nc2cc(C)c(C#N)cc2OC)ncc1C(F)(F)F [Example 13, 5-Methoxy-2-methyl-4-(4-methylamino-5-trifluoromethyl-pyrimidin-2-ylamino)-benzonitrile]	12 nM
CNc1nc(Nc2cc(F)c(S(C)(=O)=O)cc2OC)ncc1C(F)(F)F [Example 15, N2-(5-Fluoro-4-methanesulfonyl-2-methoxy-phenyl)-N4-methyl-5-trifluoromethyl-pyrimidine-2,4-diamine]	3 nM
CNc1nc(Nc2ccc(S(C)(=O)=O)cc2OC(C)C)ncc1C(F)(F)F [Example 16, N2-(2-Isopropoxy-4-methanesulfonyl-phenyl)-N4-methyl-5-trifluoromethyl-pyrimidine-2,4-diamine]	17 nM
CNc1nc(Nc2ccc(S(C)(=O)=O)cc2OCCF)ncc1Cl [Example 17, 5-Chloro-N2-[2-(2-fluoro-ethoxy)-4-methanesulfonyl-phenyl]-N4-methyl-pyrimidine-2,4-diamine]	12 nM
COc1nc(Nc2ccc(S(C)(=O)=O)cc2OCCF)ncc1Cl [Example 18, (5-Chloro-4-methoxy-pyrimidin-2-yl)-[2-(2-fluoro-ethoxy)-4-methanesulfonyl-phenyl]-amine]	12 nM
CNc1nc(Nc2ccc(S(C)(=O)=O)cc2OCCF)ncc1C(F)(F)F [Example 19, N2-[2-(2-Fluoro-ethoxy)-4-methanesulfonyl-phenyl]-N4-methyl-5-trifluoromethyl-pyrimidine-2,4-diamine]	3 nM
CNc1nc(Nc2cc(Cl)c(S(C)(=O)=O)cc2OC)ncc1C(F)(F)F [Example 20, N2-(5-Chloro-4-methanesulfonyl-2-methoxy-phenyl)-N4-methyl-5-trifluoromethyl-pyrimidine-2,4-diamine]	1 nM
CNc1nc(Nc2cc(F)c(CN3CCOCC3)cc2OCCF)ncc1C(F)(F)F [Example 21, N2-[5-Fluoro-2-(2-fluoro-ethoxy)-4-morpholin-4-ylmethyl-phenyl]-N4-methyl-5-trifluoromethyl-pyrimidine-2,4-diamine]	4 nM
CCNc1nc(Nc2cc(F)c(CN3CCOCC3)cc2OCCF)ncc1C(F)(F)F [Example 22, N4-Ethyl-N2-[5-fluoro-2-(2-fluoro-ethoxy)-4-morpholin-4-ylmethyl-phenyl]-5-trifluoromethyl-pyrimidine-2,4-diamine]	2 nM
CNc1nc(Nc2cc(C)c(S(C)(=O)=O)cc2OC)ncc1C(F)(F)F [Example 23, N2-(4-Methanesulfonyl-2-methoxy-5-methyl-phenyl)-N4-methyl-5-trifluoromethyl-pyrimidine-2,4-diamine]	0.3 nM
CNc1nc(Nc2ccc(N3CCOCC3)cc2OC)ncc1Cl [Example 24, 5-chloro-N2-(2-methoxy-4-morpholinophenyl)-N4-methylpyrimidine-2,4-diamine]	9 nM
CNc1nc(Nc2ccc(C(=O)O)cc2OC)ncc1Cl [Example 25, 4-(5-chloro-4-(methylamino)pyrimidin-2-ylamino)-3-methoxybenzoic acid]	7 nM
CNc1nc(Nc2ccc(S(=O)(=O)N3CCOCC3)cc2OC)ncc1C(F)(F)F [Example 26, N2-(2-methoxy-4-(morpholinosulfonyl)phenyl)-N4-methyl-5-(trifluoromethyl)pyrimidine-2,4-diamine]	47 nM
CNc1nc(Nc2ccc(C(F)(F)F)cc2OC)ncc1C(F)(F)F [Example 27, N2-(2-methoxy-4-(trifluoromethyl)phenyl)-N4-methyl-5-(trifluoromethyl)pyrimidine-2,4-diamine]	23 nM
CNc1nc(Nc2ccc(C(F)(F)F)cc2OC)ncc1Cl [Example 28, 5-chloro-N2-(2-methoxy-4-(trifluoromethyl)phenyl)-N4-methylpyrimidine-2,4-diamine]	35 nM
CNc1nc(Nc2cc(Cl)c(C(=O)O)cc2OC)ncc1Cl [Example 29, 2-chloro-4-(5-chloro-4-(methylamino)pyrimidin-2-ylamino)-5-methoxybenzoic acid]	36 nM
CNc1nc(Nc2cc(F)c(N3CCCC3=O)cc2OC)ncc1C(F)(F)F [Example 30, 1-(2-fluoro-5-methoxy-4-(4-(methylamino)-5-(trifluoromethyl)pyrimidin-2-ylamino)phenyl)pyrrolidin-2-one]	3 nM
CNc1nc(Nc2cc(F)c(N3CCOCC3=O)cc2OC)ncc1C(F)(F)F [Example 31, 4-(2-fluoro-5-methoxy-4-(4-(methylamino)-5-(trifluoromethyl)pyrimidin-2-ylamino)phenyl)morpholin-3-one]	3 nM
